Patent US11813264B2, “PAR1 modulation to alter myelination” (Mayo Foundation for Medical Education and Research, priority 2014, dated 2023)

What was measured:
Assay type in all cases: cell-based, mouse
[1] = tested on: oligodendrocyte progenitor cells (OPCs); test: OPC process outgrowth; conditions: 24 h
Method: Oligodendrocyte Cultures: Purified cortical oligodendrocyte progenitor cells (OPCs) and differentiated oligodendrocytes were isolated from mixed glial cultures derived from postnatal day 1 mice (McCarthy and de Vellis, J Cell Blot 85:890-902, 1980). Glial cultures were grown in media containing DMEM, 2 mM Glutamax, 1 mM sodium pyruvate, 20 mM HEPES, and 10% heat-inactivated fetal calf serum (Atlanta Biologicals, Lawrenceville, GA). OPCs were isolated from 10 days-in-vitro (DIV) mixed glial cultures by overnight shaking and purified by differential adhesion. OPCs were seeded in defined Neurobasal A media containing 1% N2, 50 U/mL penicillin/streptomycin, 2 mM Glutamax, 1 mM sodium pyruvate, 0.45% glucose, and 50 μM β-mercaptoethanol (Sigma Aldrich, USA). OPCs were seeded at 3×10^4/cm^2 onto tissue culture plastic or 12 mm glass cover slips coated with poly-L-lysine (PLL, 10 μg/mL). After 24 h, cultures were 92-98% immunoreactive (IR) for sulfatide (O4) and by 72 hours at least 80% were also MBP-IR.
(§1) PAR agonist-induced changes in oligodendrocyte morphology: To determine the effects of recombinant Klk6, Klk1, thrombin, or PAR1-AP on oligodendroglia, 3 DIV PAR1^+/+, PAR1^−/−, and PAR2^−/− oligodendrocytes, PAR1^+/+ OPCs immediately post purification, or Oli-neu cells were grown on cover slips in the presence of agonists for 24 h. For ATP toxicity assays, oligodendrocytes were incubated with ATP (50 μM, Sigma Aldrich) in the presence of Klk6 or Klk1. Following each treatment, oligodendrocyte and OPC cultures were immunolabeled for O4 to visualize the cell body and processes. Oli-neu processes were visualized by staining the actin cytoskeleton with Cy3-conjugated Phalloidin.
(§2) To assess the effects of Klk6 and other PAR1 agonists on oligodendrocyte morphology and process stability, 20× digital micrographs were overlaid with a 780 μm^2 grid and ImageJ software 1.45r (National Institutes of Health) used to record cell number and the number of processes crossing horizontal grid lines (Scarisbrick et al., Brain 125:1283-1296, 2002). Data are expressed as the mean number of O4^+ or Phalloidin^+ processes per DAPI^+ cell (±SEM).
(§3) Changes in OPC or oligodendrocyte morphology were quantified from five microscopic fields per cover slip with the mean and SEM calculated across three cover slips per experiment. Each experiment was repeated at least twice using independent cultures. Analysis of oligodendrocyte morphology was performed without knowledge of treatment groups.

[2] = tested on: primary oligodendrocyte cultures (3 DIV); test: ATP toxicity assay in oligodendrocytes
Method: as §1, §2
The extent of oligodendrocyte morphological differentiation was determined by scoring O4^+/DAPI^+ oligodendrocyte morphology as simple (only primary processes, no secondary branching), incomplete (one or more primary process without secondary branching), complete (all primary processes with secondary branching), or membrane (complete secondary branching with membrane sheets) (Huang et al., Nat Neurosci 14:45-53, 2011). The mean number of cells in each morphology class was determined across treatments and expressed as percent of total O4^+/DAPI^+ cells.
as §3

[3] = tested on: PLP and MBP RNA expression; test: Myelin gene expression (PLP, MBP RNA) in Oli-neu oligodendrocytes, quantitative RT-PCR; conditions: 24 hours
Method: (§4) Oli-neu oligodendrocytes are derived from mouse primary oligodendrocyte cultures retrovirally transduced to constitutively express the t-neu oncogene (Jung et al., Eur J Neurosci 7:1245-1265, 1995). All morphology, signaling, and myelin gene expression studies using Oli-neu oligodendrocytes were performed in media containing DMEM, 1% N2, 2 mM Glutamax, 1 mM sodium pyruvate, 20 mM HEPES buffer, and 50 μM β-mercaptoethanol (Sigma Aldrich. To evaluate PAR and Klk6 gene expression in Oli-neu (Table 2), cells were differentiated by treatment with 1 mM N^6, 2′-O-dibutyryladenosine 3′, 5′-cyclic monophosphate disodium salt (dbcAMP) for 72 hours prior to harvesting for RNA isolation. All cells were maintained at 37° C. in 95% air and 5% CO2. Cell culture reagents were obtained from Life Technologies (Carlsbad, CA) unless otherwise indicated. All cell culture experiments were performed in triplicate and repeated at least twice.
Expression of oligodendrocyte PARs and Klk6-real-time quantitative PCR: Total RNA was isolated from cultured cells using RNA STAT-60 (Tel-Test, Friendswood, TX). Klk6, PAR1, or PAR2 RNA expression was determined in 0.5 μg of RNA with the iScript one-step RT-PCR kit with SYBR® Green and the iCycler iQ5 system (BioRad, Hercules, CA). Transcript copy number was determined using a standard curve prepared by parallel amplification of cDNA clones diluted to known copy number (Christophi et al., J Neurochem 91:1439-1449, 2004). Amplification of the housekeeping gene glyceraldehyde phosphate 3-dehydrogenase (GAPDH) was used to control for loading. The mean and standard error (SEM) of transcript copy number was determined and data expressed as RNA copy number on a logarithmic scale.
Regulation of oligodendrocyte myelin gene expression by PAR1 agonists: Primary murine oligodendrocytes (3 DIV) or Oli-neu oligodendrocytes were seeded at 3.5×10^5 cells/well in six-well tissue culture plates. Cells were then treated with Klk6 (30-300 nM), Klk1 (300 nM), thrombin (270 nM), or PAR1-AP (100 μM) for 24 hours prior to RNA isolation. Expression of myelin-associated genes, PLP, and MBP was examined by real-time quantitative RT-PCR. Expression levels of target genes were normalized to GAPDH and expressed as percent control.

Oli-neu oligodendrocytes = test: Process retraction in Oli-neu oligodendrocytes (Phalloidin+ processes per cell); conditions: 24 hours, PAR1-AP 100 μM, Klk1 300 nM
Method: as §4, §1, §2

[4] = co-application with ATP 50 μM, Klk6 150 nM

Klk6: Recombinant murine kallikrein-related peptidase 6 expressed using a baculovirus system
fewer processes per cell compared with controls ([1]; 150 nM): ~60% | number of OPCs [1]: significantly reduced | OPC process extension / outgrowth ([1]; Klk6 150 nM, thrombin 135 nM, Klk1 150 nM): significantly fewer processes than thrombin treated cultures | ATP-induced oligodendrocyte loss ([2]; co-application with ATP): significant exacerbation | number of processes per oligodendrocyte ([2]; co-application with ATP 50 μM): five-fold reduction | oligodendrocytes with membrane morphology ([2]; co-application with ATP 50 μM): complete loss | oligodendroglia with mature complete morphology ([2]; co-application with ATP 50 μM): complete loss | increase in oligodendrocytes with incomplete morphologies compared with vehicle or ATP alone [2, 4]: greater than 40% | percentage of oligodendrocytes with simple morphology relative to ATP alone [2, 4]: further increasing | MBP RNA [3]: no significant suppression | PLP RNA at 30, 150 and 300 nM [3]: significant and equivalent PLP RNA down regulation | PLP expression ([3]; Klk6 300 nM, thrombin 270 nM, PAR1-AP 100 μM, Klk1 300 nM): significantly diminished | Oli-neu cell number (Oli-neu oligodendrocytes; Klk6 30 nM): small but significant increase | number of processes per cell (Oli-neu oligodendrocytes; Klk6 30, 150, 300 nM, thrombin 270 nM): significant and dose-dependent
